Legend:
desquamine = experiment: desquamine-like activity of an epidermic extract (hydrolysis of synthetic specific substrate of tPA); type: biochemical
Method: Effect of a diethylphosphatoethyltrisilanol's precursor, the diethylphosphatoethyltriethoxysilane, on the "desquame-like" activity of an epidermic extract.
Desquamine is obtained from an epidermic extract according to the Brysk and al (1994) method. The desquamine activity is evaluated by its ability to hydrolyze the synthetic specific substrate of the tPA for which it has a very strong affinity.

[1] = system: stromelysine type activity of human chondrocytes; experiment: stromelysine type enzymatic activity of human chondrocytes culture (digestion of casein coupled with resorufine); type: cell-based; conditions: no IL-1
Method: Effect of a diethylphosphatoethyltrisilanol's precursor, the diethylphosphatoethyltriethoxysilane, on the stromelysine type activity of human chondrocytes culture.
(§1) Chondrocytes cultures are carried out from human cartilages sampled on cadavers 12 hours after the death. In aqueous buffered medium (pH 7.0-7.4), the diethylphosphatoethyltriethoxysilane releases the corresponding diethylphosphatoethyltrisilanol, which is the active silanol. The stromelysine type enzymatic activity of these chondrocytes cultures is quantified by the method of digestion of casein coupled with resorufine.

[2] = system: chymotrypsine-like activity of epidermic extract; experiment: chymotrypsine-like activity of an epidermic extract (BTEE degradation); type: biochemical
Method: Effect of a diethylphosphatoethyltrisilanol's precursor, the diethylphosphatoethyltriethoxysilane, on the chymotrypsine type activity of an epidermic extract.
After sampling from a cutaneous tissue, the epidermis is cut then put in an appropriate buffered solution. The solution is homogenized with Ultra Turax (40 C.) until a satisfying epidermic extract is obtained. The chymotrypsine-like activity of this extract is assessed by the measure of the N alpha-Benzoyl-L-Tyrosine Ethyl Ester (BTEE) degradation (specific synthetic substrate).

[3] = system: osteoblasts alkaline phosphatase; experiment: synthetic activity of osteoblasts (alkaline phosphatase activity); type: cell-based, human
Method: Effect of a diethylphosphatoethyltrisilanol's precursor, the diethylphosphatoethyltriethoxysilane, on the synthetic activity of osteoblasts.
(§2) Osteoblasts cultures are carried out from human bones sampled on cadavers 12 hours after the death. In aqueous buffered medium (pH 7.0-7.4), the diethylphosphatoethyltriethoxysilane releases the corresponding diethylphosphatoethyltrisilanol, which is the active silanol. The synthetic activity of these osteoblasts is quantified by the measure of the alkaline phosphatase activity.

[4] = system: collagenase type activity of human chondrocytes; experiment: collagenase type enzymatic activity of human chondrocytes cultures after IL-1 induction (Cawston and Barrett method); type: cell-based; conditions: after IL-1 treatment
Method: Effect of a diethylphosphatoethyltrisilanol's precursor, the diethylphosphatoethyltriethoxysilane, on the collagenase type activity of human chondrocytes cultures after IL-1 induction.
as §1, with “collagenase” for “stromelysine”, “quantified following the Cawston and Barrett method after previous treatment of the cultures” for “quantified”, “IL-1.” for “the method of digestion of casein coupled with resorufine.”

[5] = system: collagenase type activity of human chondrocytes; experiment: collagenase type enzymatic activity of human chondrocytes culture (Cawston and Barrett method); type: cell-based; conditions: no IL-1
Method: Effect of a diethylphosphatoethyltrisilanol's precursor, the diethylphosphatoethyltriethoxysilane, on the collagenase type activity of human chondrocytes culture.
as §1, with “collagenase” for “stromelysine”, “following” for “by”, “Cawston and Barrett method.” for “method of digestion of casein coupled with resorufine.”

IL-6 of osteoblasts = experiment: IL-6 level of osteoblasts (ELISA); type: cell-based, human
Method: Effect of a diethylphosphatoethyltrisilanol's precursor, the diethylphosphatoethyltriethoxysilane, on the IL-6 activity of osteoblasts.
as §2, with “IL-6” for “The synthetic activity of these osteoblasts”, “ELISA technique.” for “measure of the alkaline phosphatase activity.”

[6] = system: stromelysine type activity of human chondrocytes; experiment: stromelysine type enzymatic activity of human chondrocytes culture after IL-1 induction (digestion of casein coupled with resorufine); type: cell-based; conditions: after IL-1 treatment
Method: Effect of a diethylphosphatoethyltrisilanol's precursor, the diethylphosphatoethyltriethoxysilane, on the stromelysine type activity of human chondrocytes culture after IL-1 induction.
as §1, with “Human chondrocytes” for “Chondrocytes”, “quantified, after previous treatment of cultures with IL-1,” for “quantified”

`C[Si](O)(O)O` [CH3 Si(OH)3] was tested. Which “effect on "desquamine-like" activity of the epidermic extract, in words” value (desquamine) did it give?
Its value is “dose-dependent inhibition”.

And the “inhibition of the "desquamine-like" activity of the epidermic extract” value (desquamine; 300 μg/ml)?
Its value is 25%.

What does the source list for `CCOP(=O)(CC[Si](O)(O)O)OCC` [diethylphosphatoethyltrisilanol]?
inhibition of "collagenase-like" activity of the chondrocytes (stromelysine type activity test) ([1]; 500 μg/ml): 37%; effect on "collagenase-like" activity of the chondrocytes (stromelysine type activity test), in words [1]: dose-dependent decrease; effect on "chymotrypsine-like" activity of the epidermic extract, in words [2]: dose-dependant decrease; inhibition of "chymotrypsine-like" activity of the epidermic extract ([2]; 400 μg/ml (printed 400 μ0 g/ml)): 27%; effect on osteoblasts alkaline phosphatases activity, in words [3]: dose-dependent increase; increase of the osteoblasts alkaline phosphatases activity (printed "inhibition") ([3]; 100 μg/ml): +24%; inhibition of "collagenase-like" activity of the chondrocytes ([4]; 500 μg/ml): 21%; effect on "collagenase-like" activity of the chondrocytes, in words [4]: dose-dependent decrease; inhibition of "collagenase-like" activity of the chondrocytes ([5]; 500 μg/ml): 30%; effect on "collagenase-like" activity of the chondrocytes, in words [5]: dose-dependent decrease; effect on osteoblasts IL-6 level, in words (IL-6 of osteoblasts): dose-dependent decrease; decrease of the osteoblasts IL-6 level (inhibition) (IL-6 of osteoblasts; 100 μg/ml): -49%; inhibition of "collagenase-like" activity of the chondrocytes (stromelysine type activity test) ([6]; 500 μg/ml): 18%; effect on "collagenase-like" activity of the chondrocytes (stromelysine type activity test), in words [6]: dose-dependent decrease
